Here are results for 32 compounds from patent publication US20250145633A1, “SUBSTITUTED FURANOPYRIMIDINE COMPOUNDS AS PDE1 INHIBITORS” (Dart NeuroScience, LLC, priority 2017, published 2025).

For one experiment, the target named is human PDE1B enzyme (Homo sapiens (Human), UniProt Q01064). Briefly: IMAP TR-FRET PDE1B enzymatic assay. Format: biochemical. To be noted: negative log of half-maximal molar inhibitory concentration; 200 nM FAM-cAMP; values given as bins. The essentials: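 Full-length GST-tagged human PDE1B (250 pg/well) in IMAP BSA buffer with 10 U/ml calmodulin and 2.5 mM CaCl2; compound pre-incubated 5 min at room temperature, then 200 nM (final) FAM-cAMP for 30 min. IMAP binding reagent/Tb added, 1 h; TR-FRET 520/490 ratio read. IC50 from sigmoidal dose-response fit.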
In general terms: Time-resolved FRET reads energy transfer from a long-lived donor to a nearby acceptor.
In the case of `Cc1oc2ncnc(NC3(C)CC3)c2c1C(=O)NCc1cnn(-c2cccc(F)c2)c1` [Example 572, N-{[1-(3-Fluorophenyl)-1H-pyrazol-4-yl]methyl}-6-methyl-4-[(1-methylcyclopropyl)amino]furo[2,3-d]pyrimidine-5-carboxamide], the “PDE1b (pIC50)” value was >8.

Regarding `Cc1oc2ncnc(NC3(C)CC3)c2c1C(=O)N(CCCO)Cc1ccc(F)cc1` [Example 574, N-[(4-Fluorophenyl)methyl]-N-(3-hydroxypropyl)-6-methyl-4-[(1-methylcyclopropyl)amino]furo[2,3-d]pyrimidine-5-carboxamide], the “PDE1b (pIC50)” value is given as >8.

As for `Cc1oc2ncnc(NC3(C)CC3)c2c1C(=O)NCCOc1ccc(F)cc1` [Example 585, N-[2-(4-Fluorophenoxy)ethyl]-6-methyl-4-[(1-methylcyclopropyl)amino]furo[2,3-d]pyrimidine-5-carboxamide], the “PDE1b (pIC50)” value is reported as >8.

The experiment is the same for the next values; noted with them: negative log of half-maximal molar inhibitory concentration; 200 nM FAM-cAMP; values given as bins; read-out: PDE1b (pIC50) (converted).
For the compound `COc1ccc2[nH]c(CNC(=O)c3c(C)oc4ncnc(NC5(C)CC5)c34)cc2c1` [Example 570, N-[(5-Methoxy-1H-indol-2-yl)methyl]-6-methyl-4-[(1-methylcyclopropyl)amino]furo[2,3-d]pyrimidine-5-carboxamide], the IC50 was 0.01 to 0.1 µM.

On to `Cc1oc2ncnc(NC3(C)CC3)c2c1C(=O)NCc1cnn(-c2ccc(F)cc2)c1` [Example 571, N-{[1-(4-Fluorophenyl)-1H-pyrazol-4-yl]methyl}-6-methyl-4-[(1-methylcyclopropyl)amino]furo[2,3-d]pyrimidine-5-carboxamide], for which the IC50 was 0.01 to 0.1 µM.

Regarding `COc1ccc(CN(CCCO)C(=O)c2c(C)oc3ncnc(NC4(C)CC4)c23)cc1` [Example 573, N-(3-Hydroxypropyl)-N-[(4-methoxyphenyl)methyl]-6-methyl-4-[(1-methylcyclopropyl)amino]furo[2,3-d]pyrimidine-5-carboxamide], the IC50 is 0.01 to 0.1 µM.

Turning to `Cc1oc2ncnc(NC3(C)CC3)c2c1C(=O)N(C)Cc1nc2ccc(F)cc2[nH]1` [Example 575, N-[(6-Fluoro-1H-1,3-benzodiazol-2-yl)methyl]-N,6-dimethyl-4-[(1-methylcyclopropyl)amino]furo[2,3-d]pyrimidine-5-carboxamide], the IC50 is 0.1 to 1 µM.

As to `COCCN(Cc1cccc(OC)c1)C(=O)c1c(C)oc2ncnc(NC3(C)CC3)c12` [Example 580, N-(2-Methoxyethyl)-N-[(3-methoxyphenyl)methyl]-6-methyl-4-[(1-methylcyclopropyl)amino]furo[2,3-d]pyrimidine-5-carboxamide], the IC50 is 0.01 to 0.1 µM.

`Cc1oc2ncnc(NC3(C)CC3)c2c1C(=O)N(C)CCc1nc2cc(F)ccc2[nH]1` [Example 583, N-[2-(5-Fluoro-1H-1,3-benzodiazol-2-yl)ethyl]-N,6-dimethyl-4-[(1-methylcyclopropyl)amino]furo[2,3-d]pyrimidine-5-carboxamide]: the IC50 was 0.1 to 1 µM.

For `Cc1oc2ncnc(NC3(C)CC3)c2c1C(=O)NCc1cc2ccc(F)cc2[nH]c1=O` [Example 584, N-[(7-Fluoro-2-oxo-1,2-dihydroquinolin-3-yl)methyl]-6-methyl-4-[(1-methylcyclopropyl)amino]furo[2,3-d]pyrimidine-5-carboxamide], the IC50 is 0.01 to 0.1 µM.

Consider `COc1ccccc1OC1CN(C(=O)c2c(C)oc3ncnc(NC4(C)CC4)c23)C1` [Example 589, 5-[3-(2-Methoxyphenoxy)azetidine-1-carbonyl]-6-methyl-N-(1-methylcyclopropyl)furo[2,3-d]pyrimidin-4-amine], for which the IC50 was 0.01 to 0.1 µM.

As for `COc1cccc(OC2CN(C(=O)c3c(C)oc4ncnc(NC5(C)CC5)c34)C2)c1` [Example 590, 5-[3-(3-Methoxyphenoxy)azetidine-1-carbonyl]-6-methyl-N-(1-methylcyclopropyl)furo[2,3-d]pyrimidin-4-amine], the IC50 was < 0.01 µM.

In the case of `CCOc1ccc(C(C)NC(=O)c2c(C)oc3ncnc(NC4(C)CC4)c23)cc1F` (centres unmarked) [Example 595, N-[1-(4-Ethoxy-3-fluorophenyl)ethyl]-6-methyl-4-[(1-methylcyclopropyl)amino]furo[2,3-d]pyrimidine-5-carboxamide], the IC50 was 0.01 to 0.1 µM.

On to `COc1cccc2c1OCCCN(C(=O)c1c(C)oc3ncnc(NC4(C)CC4)c13)C2` [Example 600], for which the IC50 was 0.01 to 0.1 µM.

As to `COc1ccc(CN(C)C(=O)c2c(C)oc3ncnc(NC4(C)CC4)c23)cc1O` [Example 604, N-[(3-Hydroxy-4-methoxyphenyl)methyl]-N,6-dimethyl-4-[(1-methylcyclopropyl)amino]furo[2,3-d]pyrimidine-5-carboxamide], the IC50 was 0.01 to 0.1 µM.

For the compound `C#CCN(Cc1ccc(OC)cc1)C(=O)c1c(C)oc2ncnc(NC3(C)CC3)c12` [Example 606, N-[(4-Methoxyphenyl)methyl]-6-methyl-4-[(1-methylcyclopropyl)amino}-N-(prop-2-yn-1-yl)furo[2,3-d]pyrimidine-5-carboxamide], the IC50 is 0.01 to 0.1 µM.

`COc1ccccc1C(C)NC(=O)c1c(C)oc2ncnc(NC3(C)CC3)c12` (centres unmarked) [Example 613, N-[1-(2-Methoxyphenyl)ethyl]-6-methyl-4-[(1-methylcyclopropyl)amino]furo[2,3-d]pyrimidine-5-carboxamide]: the IC50 was 0.01 to 0.1 µM.

In the case of `Cc1oc2ncnc(NC3(C)CC3)c2c1C(=O)NCc1cc([N+](=O)[O-])ccc1F` [Example 614, N-[(2-Fluoro-5-nitrophenyl)methyl]-6-methyl-4-[(1-methylcyclopropyl)amino]furo[2,3-d]pyrimidine-5-carboxamide], the IC50 was < 0.01 µM.

In the case of `COc1ccc(CCNC(=O)c2c(C)oc3ncnc(NC4(C)CC4)c23)cc1` [Example 619, N-[2-(4-Methoxyphenyl)ethyl]-6-methyl-4-[(1-methylcyclopropyl)amino]furo[2,3-d]pyrimidine-5-carboxamide], the IC50 was 0.01 to 0.1 µM.

For `Cc1oc2ncnc(NC3(C)CC3)c2c1C(=O)Nc1cnn(-c2cccnc2)c1` [Example 620, 6-Methyl-4-[(1-methylcyclopropyl)amino]-N-[1-(pyridin-3-yl)-1H-pyrazol-4-yl]furo[2,3-d]pyrimidine-5-carboxamide], the IC50 is 0.01 to 0.1 µM.

As to `Cc1oc2ncnc(NC3(C)CC3)c2c1C(=O)Nc1cnn(-c2ccncc2)c1` [Example 621, 6-Methyl-4-[(1-methylcyclopropyl)amino]-N-[1-(pyridin-4-yl)-1H-pyrazol-4-yl]furo[2,3-d]pyrimidine-5-carboxamide], the IC50 is 0.01 to 0.1 µM.

Consider `COc1ncnc2c1CN(C(=O)c1c(C)oc3ncnc(NC4(C)CC4)c13)C2` [Example 622, 5-{4-Methoxy-5H,6H,7H-pyrrolo[3,4-d]pyrimidine-6-carbonyl}-6-methyl-N-(1-methylcyclopropyl)furo[2,3-d]pyrimidin-4-amine], for which the IC50 is 0.1 to 1 µM.

In the case of `Cc1oc2ncnc(NC3(C)CC3)c2c1C(=O)N1CCn2cc(C(F)(F)F)nc2C1` [Example 623, 6-Methyl-N-(1-methylcyclopropyl)-5-[2-(trifluoromethyl)-5H,6H,7H,8H-imidazo[1,2-a]pyrazine-7-carbonyl]furo[2,3-d]pyrimidin-4-amine], the IC50 was 0.01 to 0.1 µM.

As to `Cc1oc2ncnc(NC3(C)CC3)c2c1C(=O)N1CCn2c(Br)cnc2C1` [Example 624, 5-{3-Bromo-5H,6H,7H,8H-imidazo[1,2-a]pyrazine-7-carbonyl}-6-methyl-N-(1-methylcyclopropyl)furo[2,3-d]pyrimidin-4-amine], the IC50 was 0.01 to 0.1 µM.

With `Cc1nccc(CNC(=O)c2c(C)oc3ncnc(NC4(C)CC4)c23)n1` [Example 625, 6-Methyl-4-[(1-methylcyclopropyl)amino]-N-[(2-methylpyrimidin-4-yl)methyl]furo[2,3-d]pyrimidine-5-carboxamide], the IC50 was 0.01 to 0.1 µM.

Regarding `Cc1oc2ncnc(NC3(C)CC3)c2c1C(=O)NCc1noc(C(F)(F)Cl)n1` [Example 626, N-{[5-(Chlorodifluoromethyl)-1,2,4-oxadiazol-3-yl]methyl}-6-methyl-4-[(1-methylcyclopropyl)amino]furo[2,3-d]pyrimidine-5-carboxamide], the IC50 is 0.01 to 0.1 µM.

For `Cc1noc(CNC(=O)c2c(C)oc3ncnc(NC4(C)CC4)c23)n1` [Example 627, 6-Methyl-N-[(3-methyl-1 2 4-oxadiazol-5-yl)methyl]-4-[(1-methylcyclopropyl)amino]furo[2,3-d]pyrimidine-5-carboxamide], the IC50 was 0.01 to 0.1 µM.

On to `Cc1oc2ncnc(NC3(C)CC3)c2c1C(=O)N1CCc2c(ncnc2C(C)C)C1` [Example 628, 6-Methyl-N-(1-methylcyclopropyl)-5-[4-(propan-2-yl)-5H,6H,7H,8H-pyrido[3,4-d]pyrimidine-7-carbonyl]furo[2,3-d]pyrimidin-4-amine], for which the IC50 is 0.01 to 0.1 µM.

For `COc1ncnc2c1CCN(C(=O)c1c(C)oc3ncnc(NC4(C)CC4)c13)CC2` [Example 629, 5-{4-Methoxy-5H,6H,7H,8H,9H-pyrimido[4,5-d]azepine-7-carbonyl}-6-methyl-N-(1-methylcyclopropyl)furo[2,3-d]pyrimidin-4-amine], the IC50 is 0.1 to 1 µM.

`Cc1oc2ncnc(NC3(C)CC3)c2c1C(=O)N1CCc2cccnc2C1` [Example 630, 6-Methyl-N-(1-methylcyclopropyl)-5-(5,6,7,8-tetrahydro-1,7-naphthyridine-7-carbonyl)furo[2,3-d]pyrimidin-4-amine]: the IC50 is 0.01 to 0.1 µM.

Regarding `Cc1oc2ncnc(NC3(C)CC3)c2c1C(=O)N1CCc2ncccc2C1` [Example 631, 6-Methyl-N-(1-methylcyclopropyl)-5-(5,6,7,8-tetrahydro-1,6-naphthyridine-6-carbonyl)furo[2,3-d]pyrimidin-4-amine], the IC50 was 0.1 to 1 µM.

As to `Cc1cc2n(n1)CCN(C(=O)c1c(C)oc3ncnc(NC4(C)CC4)c13)C2` [Example 632, 6-Methyl-5-f{2-methyl-4H,5H,6H,7H-pyrazolo[1,5-a]pyrazine-5-carbonyl}-N-(1-methylcyclopropyl)furo[2,3-d]pyrimidin-4-amine], the IC50 was 0.01 to 0.1 µM.
